Results as given in patent publication US20240319156A1, “DEVICE FOR TESTING VAPORIZABLE FLUIDS IN A HUMAN AIRWAY MODEL” (Rowan University, priority 2022, published 2024).

System: human airway model tissue
Settings: e-cigarette vapor exposure day 20 to day 34; vs untreated 'no battery' tissue
Text: The investigation compared how human airway model tissue was affected by e-cigarette vapors generated from two different vape-liquids, propylene glycol/vegetable glycerin ‘PG:VG’, and vitamin E acetate ‘VEA’.
Referring to FIGS. 30A-30B, illustration of experimental design used in research investigation, human airway model tissues were formed from day 0 to day 20, tissues were exposed to experimental vapors from day 20 to day 34.

SMILES: CC(=O)Oc1c(C)c(C)c2c(c1C)CCC(C)(CCC[C@H](C)CCC[C@H](C)CCCC(C)C)O2 (stereo partly shown) [VEA, vitamin E acetate]
- tissue morphology in stained cross-sections: present typical structure and are undamaged
